Test results reported in patent US20260053811A1, “METHODS OF TREATING HYPERTENSION IN OBESE SUBJECTS” (Mineralys Therapeutics, Inc., priority 2022, published 2026).

Tested on: hypertensive subjects
Assay: Adverse events (TEAEs, SAEs, AESI, study drug discontinuation, dose modification);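 also: counts of spontaneously reported adverse events in the Safety Analysis Set, subjects grouped by treatment actually received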
Format: in vivo, human
Description: In analyses performed on the Safety Analysis Set, subjects will be analyzed according to their actual treatment received.

CC(=O)N[C@H]1CC[C@H](NC(=O)CN2CCN(c3nncc(-c4ccc(C)cc4)n3)CC2)CC1 [Compound A HBr]
TEAE leading to permanent discontinuation from study drug: Orthostatic hypotension (Part 1, 100 mg QD (N = 30)): 0 n (%)
TEAE leading to permanent discontinuation from study drug: Vascular disorders (Part 1, 100 mg QD (N = 30)): 1 (3.3) n (%)
On-treatment TEAE: Blood and lymphatic system disorders (Part 1, Active (N = 133)): 2 (1.5) n (%)
On-treatment TEAE: Blood and lymphatic system disorders, Mild (Part 1, Active (N = 133)): 2 (1.5) n (%)
On-treatment TEAE: Blood creatinine increased (Part 1, Active (N = 133)): 3 (2.3) n (%)
On-treatment TEAE: Blood creatinine increased, Mild (Part 1, Active (N = 133)): 3 (2.3) n (%)
On-treatment TEAE: Cardiac disorders (Part 1, Active (N = 133)): 4 (3.0) n (%)
On-treatment TEAE: Cortisol decreased (Part 1, Active (N = 133)): 3 (2.3) n (%)
On-treatment TEAE: Cortisol decreased, Mild (Part 1, Active (N = 133)): 3 (2.3) n (%)
On-treatment TEAE: Dizziness (Part 1, Active (N = 133)): 3 (2.3) n (%)
On-treatment TEAE: Gastrointestinal disorders (Part 1, Active (N = 133)): 6 (4.5) n (%)
On-treatment TEAE: Gastrointestinal disorders, Mild (Part 1, Active (N = 133)): 5 (3.8) n (%)
On-treatment TEAE: General disorders and administration site conditions (Part 1, Active (N = 133)): 5 (3.8) n (%)
On-treatment TEAE: General disorders and administration site conditions, Mild (Part 1, Active (N = 133)): 2 (1.5) n (%)
On-treatment TEAE: Glomerular filtration rate decreased (Part 1, Active (N = 133)): 9 (6.8) n (%)
On-treatment TEAE: Glomerular filtration rate decreased, Mild (Part 1, Active (N = 133)): 8 (6.0) n (%)
On-treatment TEAE: Headache (Part 1, Active (N = 133)): 3 (2.3) n (%)
On-treatment TEAE: Headache, Mild (Part 1, Active (N = 133)): 3 (2.3) n (%)
On-treatment TEAE: Hyperkalaemia (Part 1, Active (N = 133)): 31 (23.3) n (%)
On-treatment TEAE: Hyperkalaemia, Mild (Part 1, Active (N = 133)): 26 (19.5) n (%)
On-treatment TEAE: Hyperkalaemia, Moderate (Part 1, Active (N = 133)): 4 (3.0) n (%)
On-treatment TEAE: Hyperkalaemia, Severe (Part 1, Active (N = 133)): 1 (0.8) n (%)
On-treatment TEAE: Hypertension (Part 1, Active (N = 133)): 5 (3.8) n (%)
On-treatment TEAE: Hypertension, Moderate (Part 1, Active (N = 133)): 3 (2.3) n (%)
On-treatment TEAE: Infections and infestations (Part 1, Active (N = 133)): 11 (8.3) n (%)
On-treatment TEAE: Infections and infestations, Mild (Part 1, Active (N = 133)): 5 (3.8) n (%)
On-treatment TEAE: Infections and infestations, Moderate (Part 1, Active (N = 133)): 6 (4.5) n (%)
On-treatment TEAE: Investigations (Part 1, Active (N = 133)): 21 (15.8) n (%)
On-treatment TEAE: Investigations, Mild (Part 1, Active (N = 133)): 17 (12.8) n (%)
On-treatment TEAE: Investigations, Moderate (Part 1, Active (N = 133)): 4 (3.0) n (%)
On-treatment TEAE: Metabolism and nutrition disorders (Part 1, Active (N = 133)): 34 (25.6) n (%)
On-treatment TEAE: Metabolism and nutrition disorders, Mild (Part 1, Active (N = 133)): 29 (21.8) n (%)
On-treatment TEAE: Metabolism and nutrition disorders, Moderate (Part 1, Active (N = 133)): 4 (3.0) n (%)
On-treatment TEAE: Nervous system disorders (Part 1, Active (N = 133)): 8 (6.0) n (%)
On-treatment TEAE: Nervous system disorders, Mild (Part 1, Active (N = 133)): 6 (4.5) n (%)
On-treatment TEAE: Orthostatic hypotension (Part 1, Active (N = 133)): 3 (2.3) n (%)
On-treatment TEAE: Orthostatic hypotension, Mild (Part 1, Active (N = 133)): 3 (2.3) n (%)
On-treatment TEAE: Psychiatric disorders (Part 1, Active (N = 133)): 3 (2.3) n (%)
On-treatment TEAE: Psychiatric disorders, Moderate (Part 1, Active (N = 133)): 3 (2.3) n (%)
On-treatment TEAE: Urinary tract infection (Part 1, Active (N = 133)): 7 (5.3) n (%)
On-treatment TEAE: Urinary tract infection, Mild (Part 1, Active (N = 133)): 4 (3.0) n (%)
On-treatment TEAE: Vascular disorders (Part 1, Active (N = 133)): 9 (6.8) n (%)
On-treatment TEAE: Vascular disorders, Mild (Part 1, Active (N = 133)): 5 (3.8) n (%)
On-treatment TEAE: Vascular disorders, Moderate (Part 1, Active (N = 133)): 4 (3.0) n (%)
On-treatment TEAE: any, Mild (Part 1, Active (N = 133)): 47 (35.3) n (%)
On-treatment TEAE: any, Moderate (Part 1, Active (N = 133)): 25 (18.8) n (%)
On-treatment TEAE: any, Severe (Part 1, Active (N = 133)): 1 (0.8) n (%)
Subjects with any On-treatment TEAEs leading to withdrawal from study drug (Part 1, Active (N = 133)): 10 (7.5) n (%)
TEAE leading to permanent discontinuation from study drug: Activated partial thromboplastin time prolonged (Part 1, Active (N = 133)): 1 (0.8) n (%)
TEAE leading to permanent discontinuation from study drug: Cardiac disorders (Part 1, Active (N = 133)): 1 (0.8) n (%)
TEAE leading to permanent discontinuation from study drug: Coronary artery disease (Part 1, Active (N = 133)): 1 (0.8) n (%)
TEAE leading to permanent discontinuation from study drug: Dizziness (Part 1, Active (N = 133)): 1 (0.8) n (%)
TEAE leading to permanent discontinuation from study drug: Hyperkalaemia (Part 1, Active (N = 133)): 5 (3.8) n (%)
TEAE leading to permanent discontinuation from study drug: Hypertension (Part 1, Active (N = 133)): 1 (0.8) n (%)
TEAE leading to permanent discontinuation from study drug: Hypotension (Part 1, Active (N = 133)): 1 (0.8) n (%)
TEAE leading to permanent discontinuation from study drug: Investigations (Part 1, Active (N = 133)): 1 (0.8) n (%)
TEAE leading to permanent discontinuation from study drug: Metabolism and nutrition disorders (Part 1, Active (N = 133)): 5 (3.8) n (%)
TEAE leading to permanent discontinuation from study drug: Nervous system disorders (Part 1, Active (N = 133)): 1 (0.8) n (%)
TEAE leading to permanent discontinuation from study drug: Orthostatic hypotension (Part 1, Active (N = 133)): 1 (0.8) n (%)
TEAE leading to permanent discontinuation from study drug: Vascular disorders (Part 1, Active (N = 133)): 3 (2.3) n (%)
Dose titration: Hyperkalemia, subjects n (%) (Part 1 All active (N 159)): 6 (3.8%)
Dose titration: Hyponatremia, subjects n (%) (Part 1 All active (N 159)): 0
Dose titration: Other possibly related, subjects n (%) (Part 1 All active (N 159)): 0
Dose titration: Other unrelated, subjects n (%) (Part 1 All active (N 159)): 1 (0.6%)
Study drug discontinuation: Hyperkalemia, subjects n (%) (Part 1 All active (N 159)): 6 (3.8%)
Study drug discontinuation: Hyponatremia, subjects n (%) (Part 1 All active (N 159)): 0
Study drug discontinuation: Hypotension, subjects n (%) (Part 1 All active (N 159)): 2 (1.2%)
Study drug discontinuation: Other possibly related, subjects n (%) (Part 1 All active (N 159)): 1 (0.6%)
Study drug discontinuation: Other unrelated, subjects n (%) (Part 1 All active (N 159)): 11 (6.9%)
Deaths (Part 1 or Part 2): No deaths were reported
Subjects with TEAE resulting in dose modification (Part 2): 7
Dose titration: Hyperkalemia, subjects n (%) (Part 2 100mg QD (N 31)): 1 (3.2%)
Dose titration: Hyponatremia, subjects n (%) (Part 2 100mg QD (N 31)): 1 (3.2%)
Dose titration: Other possibly related, subjects n (%) (Part 2 100mg QD (N 31)): 0
Dose titration: Other unrelated, subjects n (%) (Part 2 100mg QD (N 31)): 0
Study drug discontinuation: Hyperkalemia, subjects n (%) (Part 2 100mg QD (N 31)): 0
Study drug discontinuation: Hyponatremia, subjects n (%) (Part 2 100mg QD (N 31)): 1 (3.4%)
Study drug discontinuation: Hypotension, subjects n (%) (Part 2 100mg QD (N 31)): 1 (2.8%)
Study drug discontinuation: Other possibly related, subjects n (%) (Part 2 100mg QD (N 31)): 0
Study drug discontinuation: Other unrelated, subjects n (%) (Part 2 100mg QD (N 31)): 1 (2.8%)
Subjects with any On-treatment TEAEs leading to withdrawal from study drug (Part 2, 100 mg QD (N = 31)): 2 (6.5) n (%)
TEAE leading to permanent withdrawal from study drug: Glomerular filtration rate decreased (Part 2, 100 mg QD (N = 31)): 1 (3.2) n (%)
TEAE leading to permanent withdrawal from study drug: Hyponatraemia (Part 2, 100 mg QD (N = 31)): 1 (3.2) n (%)
TEAE leading to permanent withdrawal from study drug: Investigations (Part 2, 100 mg QD (N = 31)): 1 (3.2) n (%)
TEAE leading to permanent withdrawal from study drug: Metabolism and nutrition disorders (Part 2, 100 mg QD (N = 31)): 1 (3.2) n (%)
TEAE leading to permanent withdrawal from study drug: Muscle spasms (Part 2, 100 mg QD (N = 31)): 1 (3.2) n (%)
TEAE leading to permanent withdrawal from study drug: Musculoskeletal and connective tissue disorders (Part 2, 100 mg QD (N = 31)): 1 (3.2) n (%)
Subjects with muscle spasms (PT) (Part 2, 100 mg QD cohort): 3 (9.7%)
Subjects with ≥1 moderate on-treatment TEAE (Part 2, 100 mg QD cohort): 12 (38.7%)
Dose titration: Hyperkalemia, subjects n (%) (Total active (N 190)): 7 (4.1%)
Dose titration: Hyponatremia, subjects n (%) (Total active (N 190)): 1 (0.5%)
Dose titration: Other possibly related, subjects n (%) (Total active (N 190)): 0
Dose titration: Other unrelated, subjects n (%) (Total active (N 190)): 1 (0.5%)
Study drug discontinuation: Hyperkalemia, subjects n (%) (Total active (N 190)): 6 (3.2%)
Study drug discontinuation: Hyponatremia, subjects n (%) (Total active (N 190)): 1 (0.5%)
Study drug discontinuation: Hypotension, subjects n (%) (Total active (N 190)): 3 (1.6%)
Study drug discontinuation: Other possibly related, subjects n (%) (Total active (N 190)): 1 (0.5%)
Study drug discontinuation: Other unrelated, subjects n (%) (Total active (N 190)): 12 (6.3%)
Subjects who developed orthostatic hypotension (fall of 20 mmHg SBP or 10 mmHg DBP sitting to standing): three
Episodes of severe hyperkalemia (pooled (Part 1 and Part 2) 100 mg QD safety set (n=60)): no episodes of severe hyperkalemia
Subjects with hypotension related to treatment (two in 100 mg QD cohorts (Part 1, Part 2), one in 12.5 mg BID): three
Serious adverse events (SAEs) related to the study medication (whole trial (Example 1 analysis)): No serious adverse events (SAEs) related to the study medication were observed
